Experimental data as given in patent US9505767B2, “Pyrazolo[1,5-A]pyrimidin-7(4H)-onehistone demethylase inhibitors” (Genentech, Inc., priority 2013, dated 2016).

How the values were obtained:
KDM5A [1] = target: T1, KDM5A (Homo sapiens, UniProt P29375); experiment: KDM5A Demethylase Assay (MassSpec Assay-A); format: biochemical; conditions: full length recombinant Flag tagged KDM5A, 20 nM; MassSpec readout; biotinylated H3K9me1 peptide 4.0 μM; read-out: A KDM5A MS (IC50)
T1 construct: Full length recombinant Flag tagged KDM5A protein was purified from Sf9 insect cells; Flag; made in house; host or cells: Sf9 insect cells
Protocol: Full length recombinant Flag tagged KDM5A protein was purified from […] insect cells. The demethylation reaction buffer contained 50 mM TrisCl pH 7.4, 0.01% Triton X-100, 0.025 mg/mL BSA, 1 mM ascorbate (Cat# A4034, Sigma Aldrich), 2 mM TCEP (Cat# D9779, Sigma Aldrich), 2.0 μM α-ketoglutarate (# K2010, Sigma Aldrich) and 50 μM Fe2(NH4)2(SO4)2 (Cat# F1543, Sigma Aldrich). In a 25 μL demethylation reaction system, 20 nM recombinant KDM5A and was incubated with compounds for 10 minutes in the above buffer, and then […] (# K2010, Sigma Aldrich), 4.0 μM biotinylated H3K9me1 peptide (1-21 aa), and Fe2(NH4)2(SO4)2 were added to initiate the reaction. (All reagent concentrations are final reagent concentrations.) Reactions were incubated for 30 minutes at room temperature, and then quenched by addition of an equal volume of 1% formic acid. After termination, plates were sealed and frozen at −80° C. for analysis.

KDM5A [2] = target: T1, KDM5A; experiment: KDM5A Demethylase Assay (TR-FRET Assay-B); format: biochemical; conditions: full length recombinant Flag tagged KDM5A, 2 nM, TrisCl pH 7.4, 3.0 μM α-ketoglutarate, read-out: B KDM5A HTRF (IC50)
Protocol: Full length recombinant Flag tagged KDM5A protein was purified from Sf9 insect cells. The demethylation reaction buffer contained 50 mM TrisCl pH 7.4, 0.01% Triton X-100, 0.025 mg/mL BSA, 1 mM ascorbate, 2 mM TCEP, 3.0 μM α-ketoglutarate, and 50 μM Fe2(NH4)2(SO4)2. […] After a one hour incubation assays were read on a Perkin-Elmer Envision equipped with a laser source and appropriate filters.

T1 sequence (P29375 whole entry): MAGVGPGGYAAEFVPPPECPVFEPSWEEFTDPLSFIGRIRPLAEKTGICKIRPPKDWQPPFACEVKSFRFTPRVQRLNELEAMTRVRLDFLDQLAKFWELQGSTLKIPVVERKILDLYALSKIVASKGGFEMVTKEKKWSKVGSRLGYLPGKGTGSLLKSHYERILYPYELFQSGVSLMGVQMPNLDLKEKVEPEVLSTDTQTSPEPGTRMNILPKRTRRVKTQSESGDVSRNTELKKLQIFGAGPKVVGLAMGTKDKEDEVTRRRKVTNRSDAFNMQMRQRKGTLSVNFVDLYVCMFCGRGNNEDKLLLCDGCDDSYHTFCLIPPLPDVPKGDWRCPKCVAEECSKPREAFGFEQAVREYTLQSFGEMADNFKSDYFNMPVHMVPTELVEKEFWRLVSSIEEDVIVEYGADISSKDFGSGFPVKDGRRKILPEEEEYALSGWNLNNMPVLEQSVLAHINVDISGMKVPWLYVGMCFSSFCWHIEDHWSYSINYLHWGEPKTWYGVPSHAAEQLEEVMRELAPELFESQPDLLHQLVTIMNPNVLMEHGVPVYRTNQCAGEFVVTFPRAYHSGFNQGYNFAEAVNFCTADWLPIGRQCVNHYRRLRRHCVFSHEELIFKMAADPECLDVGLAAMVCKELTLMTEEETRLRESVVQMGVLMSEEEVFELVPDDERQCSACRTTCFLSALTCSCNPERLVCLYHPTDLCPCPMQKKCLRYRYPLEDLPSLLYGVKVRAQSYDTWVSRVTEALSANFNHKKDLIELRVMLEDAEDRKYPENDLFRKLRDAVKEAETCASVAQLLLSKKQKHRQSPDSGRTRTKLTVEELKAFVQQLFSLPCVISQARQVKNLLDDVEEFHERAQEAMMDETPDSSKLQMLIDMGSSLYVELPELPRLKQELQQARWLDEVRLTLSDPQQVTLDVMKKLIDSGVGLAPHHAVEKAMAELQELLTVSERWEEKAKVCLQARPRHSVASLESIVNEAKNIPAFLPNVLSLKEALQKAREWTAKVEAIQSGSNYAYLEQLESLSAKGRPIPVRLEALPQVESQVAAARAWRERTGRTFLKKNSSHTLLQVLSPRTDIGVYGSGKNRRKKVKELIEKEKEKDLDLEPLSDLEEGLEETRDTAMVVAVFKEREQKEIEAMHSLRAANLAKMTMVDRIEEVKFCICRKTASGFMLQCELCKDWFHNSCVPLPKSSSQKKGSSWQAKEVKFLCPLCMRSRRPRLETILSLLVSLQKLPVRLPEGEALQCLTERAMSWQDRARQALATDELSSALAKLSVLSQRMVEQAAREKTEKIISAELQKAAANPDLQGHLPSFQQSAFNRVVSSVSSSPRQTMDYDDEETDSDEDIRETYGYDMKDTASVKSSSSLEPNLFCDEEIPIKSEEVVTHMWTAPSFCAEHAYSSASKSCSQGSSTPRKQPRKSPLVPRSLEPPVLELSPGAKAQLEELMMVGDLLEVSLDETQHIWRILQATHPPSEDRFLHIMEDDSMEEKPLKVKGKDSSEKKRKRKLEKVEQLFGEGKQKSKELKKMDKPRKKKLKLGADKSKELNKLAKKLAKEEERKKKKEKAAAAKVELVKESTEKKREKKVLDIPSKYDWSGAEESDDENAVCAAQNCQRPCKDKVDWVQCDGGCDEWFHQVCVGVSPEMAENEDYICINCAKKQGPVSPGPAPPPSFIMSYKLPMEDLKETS

Row | SMILES | IC50 (KDM5A [1]) [µM] | IC50 (KDM5A [2]) [µM]
1 | CCc1c(C)[nH]c2c(-c3cnn(-c4nccc(C)n4)c3)cnn2c1=O [Example 1] | 0.0263 | –
2 | CCc1c(CO)[nH]c2c(-c3cnn(-c4ccccn4)c3)cnn2c1=O [Example 41, 6-ethyl-5-(hydroxymethyl)-3-(1-(pyridin-2-yl)-1H-pyrazol-4-yl)pyrazolo[1,5-a]pyrimidin-7(4H)-one] | – | 0.0041
3 | Cc1[nH]c2c(-c3cnn(-c4ccccn4)c3)cnn2c(=O)c1Cl [Example 43, 6-chloro-5-methyl-3-[1-(2-pyridyl)pyrazol-4-yl]-4H-pyrazolo[1,5-a]pyrimidin-7-one] | – | 0.0605
4 | CCc1c(C)[nH]c2c(-n3cnc(-c4cccnc4)c3)cnn2c1=O [Example 45, 6-ethyl-5-methyl-3-(4-(pyridin-3-yl)-1H-imidazol-1-yl)pyrazolo[1,5-a]pyrimidin-7(4H)-one] | 6.32 | –
5 | CCc1c(-c2ccccc2)[nH]c2c(-n3cnc(-c4ccccn4)c3)cnn2c1=O [Example 47, 6-ethyl-5-phenyl-3-(4-(pyridin-2-yl)-1H-imidazol-1-yl)pyrazolo[1,5-a]pyrimidin-7(4H)-one] | 0.574 | –
6 | CCc1c(C)[nH]c2c(-n3cnc(-c4ccccn4)c3)cnn2c1=O [Example 48, 6-Ethyl-5-methyl-3-(4-(pyridin-2-yl)-1H-imidazol-1-yl)pyrazolo[1,5-a]pyrimidin-7(4H)-one] | 0.0705 | –
7 | Cc1cc(=O)n2ncc(-n3cnc(-c4ccccn4)c3)c2[nH]1 [Example 49, 5-Methyl-3-(4-(pyridin-2-yl)-1H-imidazol-1-yl)pyrazolo[1,5-a]pyrimidin-7(4H)-one] | – | 0.0437
8 | CCc1[nH]c2c(-n3cnc(-c4ccccn4)c3)cnn2c(=O)c1CC [Example 51, 5,6-Diethyl-3-(4-(pyridin-2-yl)-1H-imidazol-1-yl)pyrazolo[1,5-a]pyrimidin-7(4H)-one] | 0.0708 | –
9 | Cc1c(-c2ccccc2)[nH]c2c(-n3cnc(-c4ccccn4)c3)cnn2c1=O [Example 52, 6-Methyl-5-phenyl-3-(4-(pyridin-2-yl)-1H-imidazol-1-yl)pyrazolo[1,5-a]pyrimidin-7(4H)-one] | 0.47 | –
10 | CCc1c(C)[nH]c2c(-n3cnc(-c4cscn4)c3)cnn2c1=O [Example 53, 6-Ethyl-5-methyl-3-(4-(thiazol-4-yl)-1H-imidazol-1-yl)pyrazolo[1,5-a]pyrimidin-7(4H)-one] | 0.453 | –
11 | CCc1c(C)[nH]c2c(-n3cnc(-c4ncccn4)c3)cnn2c1=O [Example 54, 6-ethyl-5-methyl-3-(4-(pyrimidin-2-yl)-1H-imidazol-1-yl)pyrazolo[1,5-a]pyrimidin-7(4H)-one] | 0.538 | –
12 | CCc1c(C)[nH]c2c(-n3cnc(C(N)=O)c3)cnn2c1=O [Example 55, 1-(6-Ethyl-5-methyl-7-oxo-4,7-dihydropyrazolo[1,5-a]pyrimidin-3-yl)-1H-imidazole-4-carboxamide] | 0.0945 | –
13 | CCc1c(C)[nH]c2c(-c3nnc(C(N)=O)o3)cnn2c1=O [Example 56, 5-(6-Ethyl-5-methyl-7-oxo-4,7-dihydropyrazolo[1,5-a]pyrimidin-3-yl)-1,3,4-oxadiazole-2-carboxamide] | 0.276 | –
14 | CCc1c(C)[nH]c2c(-c3nnc(-c4ccccn4)o3)cnn2c1=O [Example 57, 6-Ethyl-5-methyl-3-(5-(pyridin-2-yl)-1,3,4-oxadiazol-2-yl)pyrazolo[1,5-a]pyrimidin-7(4H)-one] | 0.268 | –
15 | CCc1c(C)[nH]c2c(-c3nc(C(N)=O)no3)cnn2c1=O [Example 58, 5-(6-Ethyl-5-methyl-7-oxo-4,7-dihydropyrazolo[1,5-a]pyrimidin-3-yl)-1,2,4-oxadiazole-3-carboxamide] | 0.332 | –
16 | CCc1c(C)[nH]c2c(-c3nc(-c4ccccn4)no3)cnn2c1=O [Example 59, 6-Ethyl-5-methyl-3-(3-(pyridin-2-yl)-1,2,4-oxadiazol-5-yl)pyrazolo[1,5-a]pyrimidin-7(4H)-one] | 0.518 | –
17 | CCc1c(C)[nH]c2c(-c3cc(-c4ccccn4)on3)cnn2c1=O [Example 60, 6-Ethyl-5-methyl-3-(5-(pyridin-2-yl)isoxazol-3-yl)pyrazolo[1,5-a]pyrimidin-7(4H)-one] | 4 | –
18 | Cc1[nH]c2c(-c3cnn(-c4ccccn4)c3)cnn2c(=O)c1C [Example 61, 5,6-dimethyl-3-[1-(2-pyridyl)pyrazol-4-yl]-4H-pyrazolo[1,5-a]pyrimidin-7-one] | – | 0.0661
19 | Cc1[nH]c2c(-c3cnn(-c4ccccn4)c3)cnn2c(=O)c1F [Example 62, 6-fluoro-5-methyl-3-[1-(2-pyridyl)pyrazol-4-yl]-4H-pyrazolo[1,5-a]pyrimidin-7-one] | – | 0.212

Row | SMILES | IC50 (KDM5A [1]) [µM] | IC50 (KDM5A [2]) [µM]
20 | CCc1[nH]c2c(-c3cnn(-c4ccccn4)c3)cnn2c(=O)c1CC [Example 63, 5,6-diethyl-3-[1-(2-pyridyl)pyrazol-4-yl]-4H-pyrazolo[1,5-a]pyrimidin-7-one] | – | 0.169
21 | Cc1[nH]c2c(-c3cnn(-c4ccccn4)c3)cnn2c(=O)c1C#N [Example 64, 5-methyl-7-oxo-3-[1-(2-pyridyl)pyrazol-4-yl]-4H-pyrazolo[1,5-a]pyrimidine-6-carbonitrile] | – | 0.83
22 | CCc1c(C)[nH]c2c(-c3cnn(-c4ccc(C)cn4)c3)cnn2c1=O [Example 65, 6-ethyl-5-methyl-3-[1-(5-methyl-2-pyridyl)pyrazol-4-yl]-4H-pyrazolo[1,5-a]pyrimidin-7-one] | – | 0.0051
23 | CCc1c(C)[nH]c2c(-c3cnn(-c4nccc5ccccc45)c3)cnn2c1=O [Example 66, 6-ethyl-3-(1-(isoquinolin-1-yl)-1H-pyrazol-4-yl)-5-methylpyrazolo[1,5-a]pyrimidin-7(4H)-one] | 0.861 | –
24 | CCc1c(C)[nH]c2c(-c3cnn(-c4ncccc4C)c3)cnn2c1=O [Example 67, 6-ethyl-5-methyl-3-(1-(3-methylpyridin-2-yl)-1H-pyrazol-4-yl)pyrazolo[1,5-a]pyrimidin-7(4H)-one] | 0.363 | –
25 | CCc1c(C)[nH]c2c(-c3cnn(-c4cc5ccccc5cn4)c3)cnn2c1=O [Example 68, 6-ethyl-3-(1-(isoquinolin-3-yl)-1H-pyrazol-4-yl)-5-methylpyrazolo[1,5-a]pyrimidin-7(4H)-one] | 0.0369 | –
26 | CCc1c(C)[nH]c2c(-c3cnn(-c4cccnn4)c3)cnn2c1=O [Example 69, 6-ethyl-5-methyl-3-(1-(pyridazin-3-yl)-1H-pyrazol-4-yl)pyrazolo[1,5-a]pyrimidin-7(4H)-one] | 0.233 | –
27 | CCc1c(C)[nH]c2c(-c3cnn(-c4cccc(OC)n4)c3)cnn2c1=O [Example 70, 6-ethyl-3-(1-(6-methoxypyridin-2-yl)-1H-pyrazol-4-yl)-5-methylpyrazolo[1,5-a]pyrimidin-7(4H)-one] | 3.73 | –
28 | CCc1c(C)[nH]c2c(-c3cnn(-c4cc(C)ccn4)c3)cnn2c1=O [Example 71, 6-ethyl-5-methyl-3-(1-(4-methylpyridin-2-yl)-1H-pyrazol-4-yl)pyrazolo[1,5-a]pyrimidin-7(4H)-one] | 0.0263 | –
29 | CCc1c(C)[nH]c2c(-c3cnn(-c4cnccn4)c3)cnn2c1=O [Example 72, 6-ethyl-5-methyl-3-(1-(pyrazin-2-yl)-1H-pyrazol-4-yl)pyrazolo[1,5-a]pyrimidin-7(4H)-one] | 0.076 | –
30 | Cc1[nH]c2c(-n3cnc(-c4ccccn4)c3)cnn2c(=O)c1C [Example 73, 5,6-dimethyl-3-(4-(pyridin-2-yl)-1H-imidazol-1-yl)pyrazolo[1,5-a]pyrimidin-7(4H)-one] | 0.0537 | –
31 | CCc1c(C)[nH]c2c(-n3cnc(C(=O)NC)c3)cnn2c1=O [Example 74, 1-(6-ethyl-5-methyl-7-oxo-4,7-dihydropyrazolo[1,5-a]pyrimidin-3-yl)-N-methyl-1H-imidazole-4-carboxamide] | 0.996 | –
32 | CCc1c(C)[nH]c2c(-n3cnc(C(=O)N(C)C)c3)cnn2c1=O [Example 75, 1-(6-ethyl-5-methyl-7-oxo-4,7-dihydropyrazolo[1,5-a]pyrimidin-3-yl)-N,N-dimethyl-1H-imidazole-4-carboxamide] | 0.178 | –
33 | CCc1c(C)[nH]c2c(-n3ccnc3C)cnn2c1=O [Example 77, 6-ethyl-5-methyl-3-(2-methyl-1H-imidazol-1-yl)pyrazolo[1,5-a]pyrimidin-7(4H)-one] | 3.38 | –
34 | CCc1c(-c2ccccc2)[nH]c2c(-n3ccnc3)cnn2c1=O [Example 79, 6-ethyl-3-(1H-imidazol-1-yl)-5-phenylpyrazolo[1,5-a]pyrimidin-7(4H)-one] | 43.2 | –
35 | CCc1c(C)[nH]c2c(-n3cnc(I)c3)cnn2c1=O [Example 80, 6-ethyl-3-(4-iodo-1H-imidazol-1-yl)-5-methylpyrazolo[1,5-a]pyrimidin-7(4H)-one] | 29.4 | –
36 | CCc1c(C)[nH]c2c(-n3cncc3I)cnn2c1=O [Example 81, 6-ethyl-3-(5-iodo-1H-imidazol-1-yl)-5-methylpyrazolo[1,5-a]pyrimidin-7(4H)-one] | 3.05 | –
37 | CCc1c(C)[nH]c2c(-n3cnc4ccccc43)cnn2c1=O [Example 82, 3-(1H-benzo[d]imidazol-1-yl)-6-ethyl-5-methylpyrazolo[1,5-a]pyrimidin-7(4H)-one] | 80 | –
